Laboratory results reported in US20070082949A1, “Agent for preventing and treating language disorders” (priority 2003, published 2007).

Key:
[1] = test system: cell derived from mouse connective tissue; conditions: cited from earlier work
language disorder = assay: Effect of EPA-E on a language-disordered patient with a history of cerebral infarction; assay type: in vivo, human
Experimental: A person with the history of cerebral infarction was treated. The patient experienced cerebral infarction in November, 2001, and started rehabilitation therapy of left hemiplegia from April, 2002. In June, 2002, the patient was hospitalized for 1 month because of recurrence of the cerebral infarction, and again started the rehabilitation therapy from August, 2002. The drugs that the patient had been taking before the EPA-E include: Gramalil (trade name; manufactured by Fujisawa Pharmaceutical Co., Ltd.; generic name, tiapride hydrochloride), Ketas (trade name; manufactured by Kyorin Pharmaceutical Co., Ltd.; generic name, ibudilast), Panaldine (trade name; manufactured by Daiichi Pharmaceutical Co., Ltd.; generic name, ticlopidine hydrochloride), Nivadil (trade name; manufactured by Fujisawa Pharmaceutical Co., Ltd.; generic name, nilvadipine), Altat (trade name; manufactured by Teikoku Hormone Mfg. Co., Ltd.; generic name, roxatidine acetate hydrochloride).
Before taking EPA-E, the patient could barely bring out a word. From September, 2002, the patient was administered with Epadel S600 (trade name; manufactured by Mochida Pharmaceutical Co., Ltd.; generic name, ethyl icosapentate) at a dose 600 mg and 3 times a day (namely, at a daily dose of 1800 mg).

rat = conditions: delayed discrimination test in rat; cited from earlier work

Row | SMILES | NGF production [1] | side effects (overall conclusion) (language disorder; human, in vivo) | therapeutic effect for language disorder (overall conclusion) (language disorder; summary of Example 1) | correct reaction rate (rat) | speech / conversation of the patient (language disorder; 1800 mg/day from September 2002, December 2002) | frequency of conversation, vocabulary, communication ability (language disorder; 1800 mg/day from September 2002, February 2003) | frequency of conversation and vocabulary (language disorder; 1800 mg/day from September 2002, January 2003) | speech / conversation of the patient (language disorder; 1800 mg/day from September 2002, November 2002) | adverse events (language disorder; 1800 mg/day, 6 months from the start of the administration) | speech / conversation of the patient (language disorder; person, Epadel S600 600 mg 3 times a day (1800 mg/day) from September 2002, late October 2002)
1 | CC/C=C\C/C=C\C/C=C\C/C=C\C/C=C\CCCC(=O)O [EPA, all-cis-5,8,11,14,17-icosapentaenoic acid] | action of enhancing NGF production | no side effects | significant therapeutic effects for language disorder | increase of correct reaction rate | – | – | – | – | – | –
2 | CC/C=C\C/C=C\C/C=C\C/C=C\C/C=C\CCCC(=O)OCC [EPA-E, ethyl icosapentate] | – | – | – | – | able to carry on a complicated conversation comprising not only a single word but a plurality of words | further improvement was noted in the frequency of conversation, vocabulary, communication ability | the frequency of the conversation as well as vocabulary increased even further | responding “not hurting anywhere” when fallen from the bed, and waking up at night and responding “I am not sleepy” | no adverse event suggested to be caused by EPA-E was found | started to respond by saying “Good morning”, and also started brief conversation with the care giver during the meal
